How the values were obtained:
BCBL-1 PEL cells = assay: Cytokines in ascites of BCBL-1 PEL xenograft mice (Olink inflammatory panel); assay type: in vivo
Experimental: Also, the effect of peptide on cytokine production by BCBL-1 PEL cells in xenograft mouse model was studied. Acsite was collected from NRG mice baring BCBL-1 PELs, which were either treated with wild type MBK50 (Wt) peptide (n=3), control Mut peptide (n=3) or left untreated (n=3) for 20 days. The levels of cytokines in the ascites were measured by Olink technology using inflammatory panel that can detect 92 inflammatory proteins. Data was analyzed with Olink Insights Stat analysis software. […] Thus, inflammatory protein expression profile of Wt peptide is distinct from the profile of other groups. […] On the right panel in (FIG. 12c), 15 cytokine expression levels expressed in NPX units, Olink's arbitrary unit, on log 2 scale were compared between untreated, mutant peptide and Wt peptide-treated groups.

[1] = system: multiple cancer cell lines; assay: MTT assay on multiple cancer cell lines; assay type: cell-based; conditions: 0-96 μM; BCBL-1, Ramos, SU-DHL-10, HH, Jurkat, THP-1, U937, A549
Experimental: FIG. 6. Viral and cellular responses to K-Rta peptide; identification of VGN50. (a) Protein sequence alignment. FIG. 6(A) The effect of VGN50 on various cancer cell types. MTT assays were performed with the indicated cell lines treated with various VGN50 concentrations. The O.D. of mock-treated samples were set as 100%, and O.D. from detergent treated cells were set as 0%. Percentage viability+/−SD was calculated for each treatment (N=3 samples/treatment). FIG. 6(B) Viability assay with flow cytometry. Cell viability was measured in triplicate with live/dead staining and the cell killing effects on cancer cells was compared with normal peripheral blood mononuclear cells (PBMC) from three healthy donors. Results are presented as percentage viability+/−SD deviation (N=3 samples/group).
As shown in FIG. 6(a), multiple cancer cell lines were used for MTT assay to evaluate cancer cell killing efficacies of the MBK50 peptide at different concentrations (cell variability studies). […] Importantly, human peripheral blood mononuclear cells (PBMCs) from healthy donors were approximately 10-fold less sensitive to MBK-mediated killing compared to myeloid and lymphoid cancer cell lines (e.g., THP-1 and BCBL-1) as assessed by flow cytometry after live/dead staining (FIG. 6(b)). […]

PEL cells = assay: PEL cell killing by delivered peptide (MTS live-cell assay); assay type: cell-based; conditions: peptide delivered into PEL, a MYC-dependent cancer
Experimental: FIGS. 1A-H. Viral protein sequence based cancer drug. (FIG. 1A) Discovery of hijacking transcription machinery in KSHV reactivating cells (Chen et al., J. Virol 2017). […] (FIG. 1B) Reporter assay. KSHV ORF50 overexpression inhibits MYC activation. (FIG. 1C) Chromatin immunoprecipitation with Mass Spectrometry. Proteins inducibly interact with both ORF50 and RNA polII are shown. […] (FIG. 1E) Mapping of interacting domain. GST-pull down was performed to identify NCoA2 binding domains. Purified NCoA2 was made from recombinant baculovirus infected cells and KSHV ORF50 deletion proteins were made in E. coli. Peptides are then generated as TAT-fusion for cell penetration. (FIG. 1F) ChIP-seq and RNA-seq. ChIP-seq was performed to identify NCOA2 target genes in primary effusion lymphoma cells. NCoA2 localization is highly associated with active genes and localizes with RNA pol II at enhancer regions. […] The qRT-PCR was performed with specific primers. (FIG. 1H) Gene set enrichment analyses (GSEA). RNA sequencing was performed with peptide-treated PEL cells. […] (FIG. 1I) The peptide drug. Wt peptide or mutant peptide was incubated in culture media. Forty-eight hours later, live cells were measured by applying MTS. Cell viability was compared with no-treated samples. No treated sample was set as 1.

MYC = assay: SLAM-seq, MYC transcription; assay type: cell-based; conditions: 24 μM, 30 min then 4sU 1 hour
Experimental: FIG. 9. Profiling Peptide targets with Thiol(SH)-linked alkylation for the metabolic sequencing of RNA (SLAM seq). Differences in active transcription in presence of peptide drug was examined. […] Total RNA-sequence performed 24 hours after drug incubation.
Thiol(SH)-linked alkylation for the metabolic sequencing of RNA (SLAM seq), an orthogonal-chemistry-based RNA sequencing technology detects 4-thiouridine (s4U) incorporation in RNA species at single-nucleotide resolution. Using SLAM-seq method, BC-1 cells were incubated with peptide drug and peptide with three amino acid substitute to alanine was used as a control peptide. Peptide drug was incubated in BC-1 cell culture (24 μM) and after 30 min drug incubation, 4sU (300 μM in final concentration) was added into culture media for 1 hour. Total RNA was isolated in the end of 1 hour 4sU incubation and alkylated RNA samples were subjected to SLAM-seq. Samples were duplicated and changed gene expression vs mock-treated cells (P<0.05) was marked in red. […] IGV viewer was used to visualize sequence reads at MYC region (Chr. 8). […] Log 2 fold changes and adjusted P-value of MYC down regulation in both BCBL-1 and BC-1 cells are depicted in underneath of panel.

LSSILQGLYQLDT [MBK50]
decrease of CXCL10 (BCBL-1 PEL cells): ~200 fold | decrease of VEGFA (BCBL-1 PEL cells): ~4 fold | expression change of the majority of the 15 cytokines (BCBL-1 PEL cells): about 2 fold | PC analysis of 92 inflammatory protein expression profiles (BCBL-1 PEL cells; 20 days treatment): away from the cluster | number of cytokines significantly up- or down-regulated among 92 (BCBL-1 PEL cells; p<0.05): 15 | cancer cell killing efficacy across cell lines [1]: more effective to lymphoid cell lines | killing of PEL cancer cells (PEL cells): killed the cancer cells | MYC transcript species containing T→C mutation (Myc transcription) (MYC): significantly decreased | MYC transcript species containing T→C mutation (Myc transcription) (MYC; listed as peptide drug): strongly down-regulated

Reference: patent US12528840B2, “Transcription active complex targeting cancer drug from viral protein sequence” (The Regents of the University of California, priority 2020, dated 2026)
